Test results reported in patent publication US20090227578A1, “Azabenzimidazole Derivatives, Their Manufacture and Use as Anti-Cancer Agents” (priority 2005, published 2009).
pIC50: −log10 of the molar value.

Key:
[1] = target: T1, Src (p60c-src, partially purified, Upstate) (Homo sapiens, UniProt P12931); experiment: SRC-Inhibitor-Assay, time-resolved fluorescence kinase assay (Src); format: biochemical; settings: ATP 5 μM; peptide 10 μM; enzyme pre-incubated 15 min at 15° C. with inhibitor
T1 construct: purchased UBI, Upstate Biotech, Inc
Description: (§1) SRC-Inhibitor-Assay Parameters:
(§2) Peptides: Ro: NH2-A-E-E-E-I—Y-G-E-F-E-A-K—K—K—K—CONH2, and
(§3) • Ja133-Ro: Ja133-G-Aminocaprylic acid-A-E-E-E-I—Y-G-E-F-E-A-K—K—K—K—CONH2, wherein Ja133 is LightCycler-Red 640-N-hydroxy succinimide ester; • whereby both peptides were synthesized by an optimized solid phase peptide synthesis protocol (Merrifield, Fed. Proc. Fed. Amer. Soc. Exp. Biol. 21 (1962) 412) on a Zinsser SMP350 peptide synthesizer. Shortly, the peptide was assembled on 160 mg (22.8 μmol scale) of a Rink-Linker modified polystyrene solid phase by repeatedly conjugating an twenty fold excess of amino acids each protected by temporary piperidine labile Fmoc- and permanent acid labile tert-Bu-, BOC- and O-tert-Bu-groups depending on the side chain function. The substrate sequence […] was N-terminal additionally mounted with the spacer amino acids Aminocaprylic acid and Glycin. After cleavage of the N-terminal temporary protecting group the still attached and protected peptide was labeled with a 1.5 fold amount of LightCycler-Red 640-N-hydroxy succinimide ester (purchased from Roche Diagnostics GmbH) and triethylamine. After 3 hrs. the resin was washed with Dimethylformamide and Isopropanol until the eluates of the blue resin got colourless. […] The substrate was finally isolated by a preparative reverse phase HPLC purification.
(§4) ATP, Tween 20, 4-(2-hydroxyethyl)-1-piperazineethanesulfonic acid (HEPES) were purchased from Roche Molecular Biochemicals, MgCl2 and MnCl2 were purchased from Merck Eurolab, Tris(2-carboxyethyl)phosphine hydrochloride (TCEP) was purchased from Pierce, 384 Well low volume fluorescence plates was purchased from Falcon.
(§5) At first the enzyme is pre-incubated for 15 min. at 15° C. in aqueous solution with corresponding amounts of inhibitors according to this invention. Then the phosphorylation reaction is started by adding a reaction mixture, containing ATP, Peptide and PT66, and subsequent shaking. The proceeding of this reaction is immediately monitored using time resolved fluorescence spectroscopy in a suitable well plate reader.
(§6) The IC50-values can be obtained from the reaction rates by using a non-linear curve fit (XLfit software (ID Business Solution Ltd., Guilford, Surrey, UK))

[2] = target: T2, Lck (p56lck, active, Upstate) (Homo sapiens, UniProt P06239); experiment: SRC-Inhibitor-Assay, time-resolved fluorescence kinase assay (Lck); format: biochemical; settings: ATP 5 μM; peptide 10 μM; enzyme pre-incubated 15 min at 15° C. with inhibitor
T2 construct: purchased UBI, Upstate Biotech, Inc
From the text: The activity of the compounds according to this invention as protein kinase inhibitors, in particular for the src-family tyrosine kinases, was shown by using the following assay.
as §1
Eu-labelled phosphotyrosine antibody:—for Lck Cisbio Mab PT66-K, • for Src EG&G Wallac PT66 Eu-W1024 (all commercially available).
as §2
as §3, with “purification. The purification yielded 12.2 mg RP-HPLC single peak pure blue material (lyophilisate). The identity was proven by MALDI mass spectroscopy [2720.0]. • Enzymes: Upstate Lck (p56^lck, active), Upstate Src (p60^c-src, partially purified) were purchased from UBI, Upstate Biotech, Inc. Time-resolved Fluorescence Assay: Reader: Perkin Elmer, Wallac Viktor 1420-040 multilabel counter; Liquid handling system: Beckman Coulter, Biomek 2000.” for “purification.”
as §4, §5, §6

T2 sequence (P06239 whole entry): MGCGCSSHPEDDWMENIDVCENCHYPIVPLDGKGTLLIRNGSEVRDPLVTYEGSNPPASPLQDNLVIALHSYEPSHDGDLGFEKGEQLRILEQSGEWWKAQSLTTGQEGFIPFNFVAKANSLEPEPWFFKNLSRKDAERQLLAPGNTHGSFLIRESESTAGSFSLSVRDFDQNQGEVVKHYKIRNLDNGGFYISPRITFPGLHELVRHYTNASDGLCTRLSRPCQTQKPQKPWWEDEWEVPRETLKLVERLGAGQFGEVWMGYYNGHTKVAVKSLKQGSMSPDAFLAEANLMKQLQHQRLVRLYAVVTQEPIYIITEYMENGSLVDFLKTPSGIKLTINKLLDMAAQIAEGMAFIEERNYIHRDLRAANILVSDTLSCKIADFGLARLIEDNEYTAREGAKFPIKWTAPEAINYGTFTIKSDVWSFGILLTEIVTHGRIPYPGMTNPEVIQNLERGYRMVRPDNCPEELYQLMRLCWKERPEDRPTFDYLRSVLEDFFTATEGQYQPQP
T1 sequence (P12931 whole entry): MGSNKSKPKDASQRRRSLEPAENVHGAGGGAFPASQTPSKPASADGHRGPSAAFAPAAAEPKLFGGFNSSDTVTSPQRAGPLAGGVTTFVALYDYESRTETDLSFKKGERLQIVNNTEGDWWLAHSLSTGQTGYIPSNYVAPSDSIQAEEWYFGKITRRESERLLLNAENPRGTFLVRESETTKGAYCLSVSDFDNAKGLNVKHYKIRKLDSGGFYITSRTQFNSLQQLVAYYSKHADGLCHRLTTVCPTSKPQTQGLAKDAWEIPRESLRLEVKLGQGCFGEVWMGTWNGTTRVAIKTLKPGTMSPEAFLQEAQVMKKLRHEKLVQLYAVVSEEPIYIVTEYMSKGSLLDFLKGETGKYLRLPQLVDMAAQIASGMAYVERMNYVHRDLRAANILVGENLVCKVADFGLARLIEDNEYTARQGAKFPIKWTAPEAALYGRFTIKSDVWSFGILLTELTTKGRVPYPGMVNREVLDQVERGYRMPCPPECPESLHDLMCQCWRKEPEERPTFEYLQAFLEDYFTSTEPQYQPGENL

pIC50 [1]	pIC50 [2]	SMILES
6.00 to 7.00	7.00 to 8.00	Cc1ccc(NC(=O)/C=C/c2ccncc2)cc1C(=O)Nc1cnc2[nH]c(-c3ccccc3)nc2c1 [Example 1-1, 2-Methyl-N-(2-phenyl-3H-imidazo[4,5-b]pyridin-6-yl)-5-((E)-3-pyridin-4-yl-acryloylamino)-benzamide]
7.00 to 8.00	7.00 to 8.00	Cc1ccc(NC(=O)/C=C/c2cccnc2)cc1C(=O)Nc1cnc2[nH]c(-c3ccccc3)nc2c1 [Example 1-2, 2-Methyl-N-(2-phenyl-3H-imidazo[4,5-b]pyridin-6-yl)-5-((E)-3-pyridin-3-yl-acryloylamino)-benzamide]
7.37	7.19	Cc1ccc(NC(=O)c2ccc(N3CCOCC3)cc2)cc1C(=O)Nc1cnc2[nH]c(-c3ccccc3)nc2c1 [Example 1-3, 2-Methyl-5-(4-morpholin-4-yl-benzoylamino)-N-(2-phenyl-3H-imidazo[4,5-b]pyridin-6-yl)-benzamide]
7.00 to 8.00	7.00 to 8.00	Cc1ccc(NC(=O)/C=C/c2ccccc2)cc1C(=O)Nc1cnc2[nH]c(-c3ccccc3)nc2c1 [Example 1-4, 2-Methyl-5-[(E)-(3-phenyl-acryloyl)amino]-N-(2-phenyl-3H-imidazo[4,5-b]pyridin-6-yl)-benzamide]
7.00 to 8.00	7.00 to 8.00	Cc1ccc(NC(=O)c2ccccc2)cc1C(=O)Nc1cnc2[nH]c(-c3ccccc3)nc2c1 [Example 1-5, 5-Benzoylamino-2-methyl-N-(2-phenyl-3H-imidazo[4,5-b]pyridin-6-yl)-benzamide]
7.00 to 8.00	6.00 to 7.00	Cc1ccc(NC(=O)c2cccc(-c3ccccc3)c2)cc1C(=O)Nc1cnc2[nH]c(-c3ccccc3)nc2c1 [Example 1-6, Biphenyl-3-carboxylic acid[4-methyl-3-(2-phenyl-3H-imidazo[4,5-b]pyridin-6-ylcarbamoyl)-phenyl]-amide]
7.00 to 8.00	7.00 to 8.00	O=C(Nc1ccc(Cl)c(C(=O)Nc2cnc3[nH]c(-c4ccccc4)nc3c2)c1)c1ccc(N2CCOCC2)cc1 [Example 2-1, 2-Chloro-5-(4-morpholin-4-yl-benzoylamino)-N-(2-phenyl-3H-imidazo[4,5-b]pyridin-6-yl)-benzamide]
–	7.00 to 8.00	O=C(/C=C/c1ccccc1)Nc1ccc(Cl)c(C(=O)Nc2cnc3[nH]c(-c4ccccc4)nc3c2)c1 [Example 2-2, 2-Chloro-5-[(E)-(3-phenyl-acryloyl)amino]-N-(2-phenyl-3H-imidazo[4,5-b]pyridin-6-yl)-benzamide]
7.19	6.70	O=C(Nc1ccc(Cl)c(C(=O)Nc2cnc3[nH]c(-c4ccccc4)nc3c2)c1)c1cccc(-c2ccccc2)c1 [Example 2-4, Biphenyl-3-carboxylic acid[4-chloro-3-(2-phenyl-3H-imidazo[4,5-b]pyridin-6-ylcarbamoyl)-phenyl]-amide]
–	7.00 to 8.00	O=C(Nc1ccc(Cl)c(C(=O)Nc2cnc3[nH]c(-c4ccccc4)nc3c2)c1)c1ccccc1 [Example 2-5, 5-Benzoylamino-2-chloro-N-(2-phenyl-3H-imidazo[4,5-b]pyridin-6-yl)-benzamide]
